Experimental data from patent publication US12180193B2, “Accelerating fibrosarcoma protein degrading compounds and associated methods of use” (Arvinas Operations, Inc., priority 2020, dated 2024).
Read-outs that look alike come from different tables or passages of the source.

What was measured:
[1] = target: T1, BRAF V600E (Homo sapiens, UniProt P15056, V600E); experiment: Cellular assay of target protein degradation, T-Rex 293 cells stably transfected with HA-BRAF_V600E (HA immunofluorescence, high content imaging); type: cell-based
T1 construct: expressed in transfected cells
T1 sequence (P15056 whole entry V600E): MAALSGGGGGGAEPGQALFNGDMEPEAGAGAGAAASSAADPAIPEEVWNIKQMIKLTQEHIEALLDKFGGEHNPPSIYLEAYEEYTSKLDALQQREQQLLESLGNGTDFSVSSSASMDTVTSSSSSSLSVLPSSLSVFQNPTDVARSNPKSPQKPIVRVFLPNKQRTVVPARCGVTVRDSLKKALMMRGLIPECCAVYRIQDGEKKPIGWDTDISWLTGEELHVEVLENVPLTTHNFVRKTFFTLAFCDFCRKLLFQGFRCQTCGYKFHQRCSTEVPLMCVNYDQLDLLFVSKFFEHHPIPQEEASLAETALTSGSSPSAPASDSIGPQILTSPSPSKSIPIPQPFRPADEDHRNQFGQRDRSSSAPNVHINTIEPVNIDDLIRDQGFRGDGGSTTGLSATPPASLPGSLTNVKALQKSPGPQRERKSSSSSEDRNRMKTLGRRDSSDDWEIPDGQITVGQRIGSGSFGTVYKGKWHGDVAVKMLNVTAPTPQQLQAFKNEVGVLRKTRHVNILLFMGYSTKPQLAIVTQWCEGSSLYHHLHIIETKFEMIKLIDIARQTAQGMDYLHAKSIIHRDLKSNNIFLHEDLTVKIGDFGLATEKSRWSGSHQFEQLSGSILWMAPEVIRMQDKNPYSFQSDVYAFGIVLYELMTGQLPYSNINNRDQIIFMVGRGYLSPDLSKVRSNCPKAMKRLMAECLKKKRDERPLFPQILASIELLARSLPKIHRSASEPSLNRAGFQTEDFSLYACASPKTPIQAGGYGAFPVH
Outline: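 24 h compound exposure, 1 μM–0.1 nM final, 0.1% DMSO, 37 °C; cells induced with 1 ng/mL doxycycline. PFA fix, Triton permeabilize, anti-HA overnight 4 °C, Hoechst/phalloidin counterstain. Output: DC50, Dmax as % control.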

[2] = target: T2, BRAF G466V (Homo sapiens, UniProt P15056, G466V); experiment: Cellular assay of target protein degradation, T-Rex 293 cells stably transfected with HA-BRAF G466V (HA immunofluorescence, high content imaging); type: cell-based
T2 construct: expressed in transfected cells
T2 sequence (P15056 whole entry G466V): as the sequence (P15056 whole entry V600E) above, with G466V, E600V counted along it
Outline: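 24 h compound, 30 nM–3 pM final, 0.1% DMSO, 37° C; HA-BRAF G466V induced with 0.75 ng/mL doxycycline. PFA fix, Triton perm, anti-HA + Alexa fluor secondary, Hoechst/phalloidin counterstain; imaging. DC50, Dmax (% of control).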

[3] = half maximal degradation, T-Rex 293 HA-BRAF V600E; read-out: BRaf V600E DC50
[4] = maximum degradation observed, T-Rex 293 HA-BRAF V600E
[5] = half maximal degradation, T-Rex 293 HA-BRAF G466V; read-out: BRaf G466V DC50
[6] = maximum degradation observed, T-Rex 293 HA-BRAF G466V

DC50 [1, 3] [nM]	Dmax [1, 4] [%]	DC50 [2, 5] [nM]	Dmax [2, 6] [%]	SMILES	DC50 ([1]; read-out: BRaf V600E DC50; half maximal degradation, T-Rex 293 HA-BRAF V600E) [nM]	DC50 ([2]; read-out: BRaf G466V DC50; half maximal degradation, T-Rex 293 HA-BRAF G466V) [nM]
5 to 50	35 to 70	< 1	35 to 70	COc1c(NS(=O)(=O)N2CC[C@@H](F)C2)ccc(F)c1C(=O)c1c[nH]c2ncc(-c3ccc(N4CCC(CN5CCC(c6ccc7c(c6)CN([C@H]6CCC(=O)NC6=O)C7=O)CC5)CC4)cc3)cc12 [Compound 207, (3R)—N-{3-[5-(4-{4-[(4-{2-[(3S)-2,6-dioxopiperidin-3-yl]-1-oxo-2,3-dihydro-1H-isoindol-5-yl}piperidin-1-yl)methyl]piperidin-1-yl}phenyl)-1H-pyrrolo[2,3-b]pyridine-3-carbonyl]-4-fluoro-2-methoxyphenyl}-3-fluoropyrrolidine-1-sulfonamide]	–	–
5 to 50	35 to 70	< 1	35 to 70	O=C1CC[C@H](N2Cc3cc(/C=C/CN4CC5(C4)CN(c4ccc(-c6cnc7[nH]cc(C(=O)c8c(F)ccc(NS(=O)(=O)N9CC[C@@H](F)C9)c8F)c7c6)cc4)C5)ccc3C2=O)C(=O)N1 [Compound 38, (3R)-N-{3-[5-(4-{6-[(2E)-3-{2-[(3S)-2,6-dioxopiperidin-3-yl]-1-oxo-2,3-dihdyro-1H-isoindol-5-yl}prop-2-en-1-yl]-2,6-diazaspiro[3.3]heptan-2-yl}phenyl)-1H-pyrrolo[2,3-b]pyridine-3-carbonyl]-2,4-difluorophenyl}-3-fluoropyrrolidine-1-sulfonamide]	–	–
50 to 500	35 to 70	1 to 10	35 to 70	O=C1CCC(N2Cc3cc(N4CCC(C5CN(c6ccc(-c7cnc8[nH]cc(C(=O)c9c(F)ccc(NS(=O)(=O)N%10CC[C@@H](F)C%10)c9F)c8c7)cc6)C5)CC4)ccc3C2=O)C(=O)N1 (stereo partly drawn) [Compound 293, (3R)-N-(3-{5-[4-(3-{1-[2-(2,6-dioxopiperidin-3-yl)-1-oxo-2,3-dihydro-1H-isoindol-5-yl]piperidin-4-yl}azetidin-1-yl)phenyl]-1H-pyrrolo[2,3-b]pyridine-3-carbonyl}-2,4-difluorophenyl)-3-fluoropyrrolidine-1-sulfonamide]	–	–
5 to 50	35 to 70	< 1	35 to 70	O=C1CCC(N2Cc3cc(N4CCC5(CCN(CCc6ccc(-c7cnc8[nH]cc(C(=O)c9c(F)ccc(NS(=O)(=O)N%10CC[C@@H](F)C%10)c9F)c8c7)cc6)CC5)C4)ccc3C2=O)C(=O)N1 (stereo partly drawn) [Compound 10, (3R)-N-(3-{5-[4-(2-{2-[2-(2,6-dioxopiperidin-3-yl)-1-oxo-2,3-dihydro-1H-isoindol-5-yl]-2,8-diazaspiro[4.5]decan-8-yl}ethyl)phenyl]-1H-pyrrolo[2,3-b]pyridine-3-carbonyl}-2,4-difluorophenyl)-3-fluoropyrrolidine-1-sulfonamide]	–	–
< 5	35 to 70	1 to 10	> 70	O=C1CCC(N2Cc3cc(N4CCC(CN5CC6(CCN(c7ccc(-c8cnc9[nH]cc(C(=O)c%10c(F)ccc(NS(=O)(=O)N%11CC[C@@H](F)C%11)c%10F)c9c8)cn7)C6)C5)CC4)ccc3C2=O)C(=O)N1 (stereo partly drawn) [Compound 92, (3R)-N-[3-(5-{6-[2-({1-[2-(2,6-dioxopiperidin-3-yl)-1-oxo-2,3-dihydro-1H-isoindol-5-yl]piperidin-4-yl}methyl)-2,6-diazaspiro[3.4]octan-6-yl]pyridin-3-yl}-1H-pyrrolo[2,3-b]pyridine-3-carbonyl)-2,4-difluorophenyl]-3-fluoropyrrolidine-1-sulfonamide]	–	–
5 to 50	35 to 70	< 1	> 70	O=C1CC[C@@H](N2Cc3cc(C4CCN(CC5CCN(c6ccc(-c7cnc8[nH]cc(C(=O)c9c(F)ccc(NS(=O)(=O)N%10CC[C@@H](F)C%10)c9F)c8c7)cc6)CC5)CC4)ccc3C2=O)C(=O)N1 [Compound 161, (3R)-N-{3-[5-(4-{4-[(4-{2-[(3R)-2,6-dioxopiperidin-3-yl]-1-oxo-2,3-dihydro-1H-isoindol-5-yl}lpiperidin-1-yl)methyl]piperidin-1-yl}phenyl)-1H-pyrrolo[2,3-b]pyridine-3-carbonyl]-2,4-difluorophenyl}-3-fluoropyrrolidine-1-sulfonamide]	–	–
5 to 50	35 to 70	1 to 10	> 70	O=C1CC[C@@H](N2Cc3cc(C[C@@H](O)CN4CCN(c5ccc(-c6cnc7[nH]cc(C(=O)c8c(F)ccc(NS(=O)(=O)N9CC[C@@H](F)C9)c8F)c7c6)cc5)CC4)ccc3C2=O)C(=O)N1 [Compound 73, (3R)-N-{3-[5-(4-{4-[(2R)-3-{2-[(3R)-2,6-dioxopiperidin-3-yl]-1-oxo-2,3-dihydro-1H-isoindol-5-yl}-2-hydroxypropyl]piperazin-1-yl}phenyl)-1H-pyrrolo[2,3-b]pyridine-3-carbonyl]-2,4-difluorophenyl}-3-fluoropyrrolidine-1-sulfonamide]	–	–
5 to 50	35 to 70	1 to 10	> 70	C[C@@H]1C[C@H](CN2CCC(c3ccc4c(c3)CN([C@@H]3CCC(=O)NC3=O)C4=O)CC2)CCN1c1ccc(-c2cnc3[nH]cc(C(=O)c4c(F)ccc(NS(=O)(=O)N5CC[C@@H](F)C5)c4F)c3c2)cc1 [Compound 242, (3R)-N-[3-(5-{4-[(2R,4R)-4-[(4-{2-[(3R)-2,6-dioxopiperidin-3-yl]-1-oxo-2,3-dihydro-1H-isoindol-5-yl}piperidin-1-yl)methyl]-2-methylpiperidin-1-yl]phenyl}-1H-pyrrolo[2,3-b]pyridine-3-carbonyl)-2,4-difluorophenyl]-3-fluoropyrrolidine-1-sulfonamide]	–	–
5 to 50	< 35	1 to 10	35 to 70	CNc1cc(-c2cnc3[nH]cc(C(=O)c4c(F)ccc(NS(=O)(=O)N5CC[C@@H](F)C5)c4F)c3c2)cc(NC)c1N1CCC(CN2CCC(c3ccc4c(c3)CN(C3CCC(=O)NC3=O)C4=O)CC2)CC1 (stereo partly drawn) [Compound 285, (3R)-N-[3-(5-{4-[4-({4-[2-(2,6-dioxopiperidin-3-yl)-1-oxo-2,3-dihydro-1H-isoindol-5-yl]piperidin-1-yl}methyl)piperidin-1-yl]-3,5-bis(methylamino)phenyl}-1H-pyrrolo[2,3-b]pyridine-3-carbonyl)-2,4-difluorophenyl]-3-fluoropyrrolidine-1-sulfonamide]	–	–

SMILES	DC50 [1, 3] [nM]	Dmax [1, 4] [%]	DC50 [2, 5] [nM]	Dmax [2, 6] [%]	DC50 ([1]; read-out: BRaf V600E DC50; half maximal degradation, T-Rex 293 HA-BRAF V600E) [nM]	DC50 ([2]; read-out: BRaf G466V DC50; half maximal degradation, T-Rex 293 HA-BRAF G466V) [nM]
O=C1CCC(NC(=O)N2CCCc3c(C4CCN(CC5CCN(c6ccc(-c7cnc8[nH]cc(C(=O)c9c(F)ccc(NS(=O)(=O)N%10CC[C@@H](F)C%10)c9F)c8c7)cc6)CC5)CC4)ccnc32)C(=O)N1 (stereo partly drawn) [Compound 364, 5-(1-{[1-(4-{3-[2,6-difluoro-3-({[(3R)-3-fluoropyrrolidin-1-yl]sulfonyl}amino)benzoyl]-1H-pyrrolo[2,3-b]pyridin-5-yl}phenyl)piperidin-4-yl]methyl}piperidin-4-yl)-N-(2,6-dioxopiperidin-3-yl)-1,2,3,4-tetrahydro-1,8-naphthyridine-1-carboxamide]	–	35 to 70	–	> 70	5 to 50	1 to 10
